From patent US3943123A, “Novel beta-lactams and novel process” (Koninklijke Nederlandsche Gist-En Spiritusfabriek N.V., priority 1974, dated 1976)
≈ marks a conversion by molar mass, not a printed value.

Columns and labels:
[1] = solubility in various organic solvents; type: physicochemical; conditions: cis isomer, in words
[2] = test system: test organisms; experiment: anti-bacterial activity as determined by standard tests; type: cell-based; conditions: in words
Excerpt: Many of the β-lactams described here have anti-bacterial activity as determined by standards tests. […] The novel β-lactams of the invention are also useful intermediates for the preparation of complex substituted amino acids which can then be polymerized to form polymers. The amino acids are formed by 1,2-cleavage of the β-lactams with an alkali metal hydroxide or alkoxide such as sodium methoxide in a lower alkanol such as methanol to form the corresponding alkali metal salt of the resulting 3-aminopropionic acid which can be acidified to form the corresponding free amino acid.
(§1) A stock solution of the test compounds at a concentration of […] in 0.05 molar phosphate buffer solution at a pH of 6.5 was prepared and two-fold dilutions were made with sterile buffer. 1 cc quantities of each dilution were then incorporated into 19 cc of brain heart infusion agar in sterile petri dishes. The hardened surface was then inoculated with the test organisms and it was then incubated for 18 hours at 37°C. The minimum inhibitory concentration (MIC) which is the least amount of compound completely inhibiting the test organism is determined in mg/cc.

[3] = test system: Staphylococcus Aureus 2160'; experiment: MIC by two-fold agar dilution (brain heart infusion agar), Staphylococcus aureus 2160'; type: cell-based; conditions: strain 2160', 18 hours at 37°C, pH 6.5 buffer, read-out: minimum inhibitory concentration (MIC)
Experimental: as §1

[4] = test system: Bacillus Subtilis ATCC 6633; experiment: MIC by two-fold agar dilution (brain heart infusion agar), Bacillus subtilis; type: cell-based; conditions: ATCC6633, 18 hours at 37°C, pH 6.5 buffer, read-out: minimum inhibitory concentration (MIC)
Experimental: as §1

[5] = test system: Staphylococcus Aureus A 321; experiment: MIC by two-fold agar dilution (brain heart infusion agar), Staphylococcus aureus A 321; type: cell-based; conditions: strain A 321, 18 hours at 37°C, pH 6.5 buffer, read-out: minimum inhibitory concentration (MIC)
Experimental: as §1

[6] = test system: Staphylococcus Aureus A 355; experiment: MIC by two-fold agar dilution (brain heart infusion agar), Staphylococcus aureus A 355; type: cell-based; conditions: strain A 355, 18 hours at 37°C, pH 6.5 buffer, read-out: minimum inhibitory concentration (MIC)
Experimental: as §1

Row | Compound | solubility in various organic solvents [1] | antibacterial activity [2] | MIC [3] [mg/mL] | MIC [4] [mg/mL] | MIC [5] [mg/mL] | MIC [6] [mg/mL]
1 | O=C(O)c1ccc(N2C(=O)[C@@H](Oc3ccccc3)[C@H]2c2ccccc2O)cc1 (relative stereo) [cis-1-(p-carboxyphenyl)-3-phenoxy-4-(o-hydroxyphenyl)azetidin-2-one] | low solubility in various organic solvents |  |  |  |  | 
2 | COc1ccc(C2C(Oc3ccccc3)C(=O)N2c2ccc(C(=O)O)cc2)cc1 (stereo not drawn) [1-(p-carboxyphenyl)-3-phenoxy-4-(p-methoxyphenyl)-azetidin-2-one] |  | outstanding for their antibacterial activity |  |  |  | 
3 | COc1ccc(N2C(=O)C(Oc3ccccc3)C2c2ccc(C(=O)O)cc2)cc1 (stereo not drawn) [1-(p-methoxyphenyl)-3-phenoxy-4-(p-carboxyphenyl)-azetidin-2-one] |  | outstanding for their antibacterial activity | 100 (≈ 257 mM) | 100 (≈ 257 mM) | 100 (≈ 257 mM) | 100 (≈ 257 mM)
4 | O=C(O)c1ccc(N2C(=O)C(Oc3ccccc3)C2c2ccco2)cc1 (stereo not drawn) [1-p-carboxyphenyl-3-phenoxy-4-α-furyl-azetidin-2-one] |  | outstanding for their antibacterial activity |  | 50 (≈ 143 mM) |  | 
